PubChem BioAssay AID1918952 (Molecular Pharmacology Branch, DTP, NCI, 2023)

Test system: LG0703-F948-PDC complex spheroid viability
Test: Anticancer human tumor LG0703-F948-PDC patient-derived lung adenocarcinoma cell line growth inhibition
Settings: for IC50: curve of first compound; for viability, T/C: stronger effect = lower value
In short: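 Drug combinations with the LSD1 inhibitor iadademstat tested on tumor cells co-cultured as spheroids with endothelial cells and mesenchymal stem cells. Concentrations descended in half-log increments from clinical Cmax or 10 microM.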

[1] = second compound 0.1 µM, first compound 0.00949 µM
[2] = second compound 0.1 µM, first compound 0.03 µM
[3] = second compound 0.1 µM, first compound 0.0949 µM
[4] = second compound 0.1 µM, first compound 0.3 µM
[5] = second compound 0.316 µM, first compound 0.00949 µM
[6] = second compound 0.316 µM, first compound 0.03 µM
[7] = second compound 0.316 µM, first compound 0.0949 µM
[8] = second compound 0.316 µM, first compound 0.3 µM
[9] = second compound 1 µM, first compound 0.00949 µM
[10] = second compound 1 µM, first compound 0.03 µM
[11] = second compound 1 µM, first compound 0.0949 µM
[12] = second compound 1 µM, first compound 0.3 µM
[13] = second compound 3.16 µM, first compound 0.00949 µM
[14] = second compound 3.16 µM, first compound 0.03 µM
[15] = second compound 3.16 µM, first compound 0.0949 µM
[16] = second compound 3.16 µM, first compound 0.3 µM
[17] = second compound 10 µM, first compound 0.00949 µM
[18] = second compound 10 µM, first compound 0.03 µM
[19] = second compound 10 µM, first compound 0.0949 µM
[20] = second compound 10 µM, first compound 0.3 µM
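Note: spheroids exposed to agents for seven days before readout.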
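Throughout, for viability, T/C: 100% = DMSO vehicle control wells as normalization base.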

Q: For `Nc1ccccc1NC(=O)c1ccc(CNC(=O)OCc2cccnc2)cc1` + NC1CCC(NC2CC2c2ccccc2)CC1, which IC50 (second compound 0.1 µM) is on record?
A: 0.118 µM

Q: And the IC50 (second compound 0.316 µM)?
A: 0.142 µM

Q: What about the IC50 (second compound 1 µM) of the same molecule?
A: 0.127 µM

Q: And the IC50 (second compound 3.16 µM)?
A: 0.141 µM

Q: What about the IC50 (second compound 10 µM) of the same molecule?
A: 0.139 µM

Q: And the viability, T/C [1]?
A: 110%

Q: What about the viability, T/C [2] of the same molecule?
A: 99.9%

Q: And the viability, T/C [3]?
A: 58.8%

Q: What about the viability, T/C [4] of the same molecule?
A: 12.6%

Q: What about the viability, T/C (second compound 0.1 µM, first compound 0.949 µM) of the same molecule?
A: 1.17%

Q: And the viability, T/C (second compound 0.1 µM, first compound 3 µM)?
A: 0.33%

Q: And the viability, T/C [5]?
A: 105%

Q: What about the viability, T/C [6] of the same molecule?
A: 93.8%

Q: What about the viability, T/C [7] of the same molecule?
A: 70.2%

Q: And the viability, T/C [8]?
A: 14.2%

Q: What about the viability, T/C (second compound 0.316 µM, first compound 0.949 µM) of the same molecule?
A: 1.51%

Q: What about the viability, T/C (second compound 0.316 µM, first compound 3 µM) of the same molecule?
A: 0.96%

Q: What about the viability, T/C [9] of the same molecule?
A: 87.7%

Q: What about the viability, T/C [10] of the same molecule?
A: 94.8%

Q: And the viability, T/C [11]?
A: 59.4%

Q: And the viability, T/C [12]?
A: 17%

Q: And the viability, T/C (second compound 1 µM, first compound 0.949 µM)?
A: 1.08%

Q: What about the viability, T/C (second compound 1 µM, first compound 3 µM) of the same molecule?
A: 0.48%

Q: And the viability, T/C [13]?
A: 112%

Q: What about the viability, T/C [14] of the same molecule?
A: 109%

Q: What about the viability, T/C [15] of the same molecule?
A: 68.9%

Q: And the viability, T/C [16]?
A: 13.5%

Q: And the viability, T/C (second compound 3.16 µM, first compound 0.949 µM)?
A: 0.24%

Q: And the viability, T/C (second compound 3.16 µM, first compound 3 µM)?
A: 0.24%

Q: And the viability, T/C [17]?
A: 94.7%

Q: What about the viability, T/C [18] of the same molecule?
A: 85.2%

Q: And the viability, T/C [19]?
A: 67.2%

Q: And the viability, T/C [20]?
A: 17%

Q: And the viability, T/C (second compound 10 µM, first compound 0.949 µM)?
A: 0.59%

Q: What about the viability, T/C (second compound 10 µM, first compound 3 µM) of the same molecule?
A: 0.92%

Q: Which results are given for `Nc1ccn(C2OC(CO)C(O)C2(F)F)c(=O)n1` (stereo not given) + NC1CCC(NC2CC2c2ccccc2)CC1?
A: IC50 (second compound 0.1 µM): 0.00335 µM; IC50 (second compound 0.316 µM): 0.00437 µM; IC50 (second compound 1 µM): 0.0152 µM; IC50 (second compound 3.16 µM): 0.0244 µM; IC50 (second compound 10 µM): 0.0193 µM; viability, T/C (second compound 0.1 µM, first compound 0.000949 µM): 68.9%; viability, T/C (second compound 0.1 µM, first compound 0.003 µM): 50.5%; viability, T/C [1]: 41.8%; viability, T/C [2]: 44%; viability, T/C [3]: 39.1%; viability, T/C [4]: 36.8%; viability, T/C (second compound 0.316 µM, first compound 0.000949 µM): 67.5%; viability, T/C (second compound 0.316 µM, first compound 0.003 µM): 52.3%; viability, T/C [5]: 45.3%; viability, T/C [6]: 41.1%; viability, T/C [7]: 44.2%; viability, T/C [8]: 38.6%; viability, T/C (second compound 1 µM, first compound 0.000949 µM): 74.6%; viability, T/C (second compound 1 µM, first compound 0.003 µM): 56.1%; viability, T/C [9]: 55%; viability, T/C [10]: 46.4%; viability, T/C [11]: 48.1%; viability, T/C [12]: 37.2%; viability, T/C (second compound 3.16 µM, first compound 0.000949 µM): 86.8%; viability, T/C (second compound 3.16 µM, first compound 0.003 µM): 65.8%; viability, T/C [13]: 54.1%; viability, T/C [14]: 51.5%; viability, T/C [15]: 45.1%; viability, T/C [16]: 43.6%; viability, T/C (second compound 10 µM, first compound 0.000949 µM): 83.1%; viability, T/C (second compound 10 µM, first compound 0.003 µM): 56.8%; viability, T/C [17]: 56.8%; viability, T/C [18]: 49%; viability, T/C [19]: 51.1%; viability, T/C [20]: 42.2%

Q: How did the IC50 (second compound 0.1 µM) turn out when `O=C(c1cc(Cc2n[nH]c(=O)c3ccccc23)ccc1F)N1CCN(C(=O)C2CC2)CC1` + NC1CCC(NC2CC2c2ccccc2)CC1 was run?
A: > 10 µM

Q: And the IC50 (second compound 0.316 µM)?
A: > 10 µM

Q: What about the IC50 (second compound 1 µM) of the same molecule?
A: > 10 µM

Q: And the IC50 (second compound 3.16 µM)?
A: > 10 µM

Q: And the IC50 (second compound 10 µM)?
A: > 10 µM

Q: What about the viability, T/C (second compound 0.1 µM, first compound 0.0316 µM) of the same molecule?
A: 101%

Q: And the viability, T/C (second compound 0.1 µM, first compound 0.1 µM)?
A: 100%

Q: What about the viability, T/C (second compound 0.1 µM, first compound 0.316 µM) of the same molecule?
A: 91.5%

Q: And the viability, T/C (second compound 0.1 µM, first compound 1 µM)?
A: 99.4%

Q: And the viability, T/C (second compound 0.1 µM, first compound 3.16 µM)?
A: 80.9%

Q: And the viability, T/C (second compound 0.1 µM, first compound 10 µM)?
A: 76.8%

Q: What about the viability, T/C (second compound 0.316 µM, first compound 0.0316 µM) of the same molecule?
A: 112%

Q: What about the viability, T/C (second compound 0.316 µM, first compound 0.1 µM) of the same molecule?
A: 117%

Q: What about the viability, T/C (second compound 0.316 µM, first compound 0.316 µM) of the same molecule?
A: 106%

Q: What about the viability, T/C (second compound 0.316 µM, first compound 1 µM) of the same molecule?
A: 89.4%

Q: What about the viability, T/C (second compound 0.316 µM, first compound 3.16 µM) of the same molecule?
A: 94.3%

Q: And the viability, T/C (second compound 0.316 µM, first compound 10 µM)?
A: 84%

Q: And the viability, T/C (second compound 1 µM, first compound 0.0316 µM)?
A: 121%

Q: What about the viability, T/C (second compound 1 µM, first compound 0.1 µM) of the same molecule?
A: 125%

Q: What about the viability, T/C (second compound 1 µM, first compound 0.316 µM) of the same molecule?
A: 123%

Q: What about the viability, T/C (second compound 1 µM, first compound 1 µM) of the same molecule?
A: 130%

Q: What about the viability, T/C (second compound 1 µM, first compound 3.16 µM) of the same molecule?
A: 95.3%

Q: What about the viability, T/C (second compound 1 µM, first compound 10 µM) of the same molecule?
A: 98.2%

Q: What about the viability, T/C (second compound 3.16 µM, first compound 0.0316 µM) of the same molecule?
A: 116%

Q: And the viability, T/C (second compound 3.16 µM, first compound 0.1 µM)?
A: 110%

Q: What about the viability, T/C (second compound 3.16 µM, first compound 0.316 µM) of the same molecule?
A: 113%

Q: And the viability, T/C (second compound 3.16 µM, first compound 1 µM)?
A: 107%

Q: What about the viability, T/C (second compound 3.16 µM, first compound 3.16 µM) of the same molecule?
A: 112%

Q: What about the viability, T/C (second compound 3.16 µM, first compound 10 µM) of the same molecule?
A: 106%

Q: And the viability, T/C (second compound 10 µM, first compound 0.0316 µM)?
A: 109%

Q: What about the viability, T/C (second compound 10 µM, first compound 0.1 µM) of the same molecule?
A: 106%

Q: What about the viability, T/C (second compound 10 µM, first compound 0.316 µM) of the same molecule?
A: 103%

Q: And the viability, T/C (second compound 10 µM, first compound 1 µM)?
A: 109%

Q: And the viability, T/C (second compound 10 µM, first compound 3.16 µM)?
A: 94%

Q: What about the viability, T/C (second compound 10 µM, first compound 10 µM) of the same molecule?
A: 84%
